The record followed here is US8658791B2, “2-substituted-6-amino-5-alkyl, alkenyl or alkynyl-4-pyrimidinecarboxylic acids and 6-substituted-4-amino-3-alkyl, alkenyl or alkynyl picolinic acids and their use as herbicides” (Dow AgroSciences, LLC, priority 2007, dated 2014).

Common to all, as to type: in vivo
Assay [1] deals with rice (Oryza sativa). In words: General postemergence herbicidal activity, ORYSA. Conditions: Oryza sativa, post-emergence, 336 h, postemergence spray, visual score after 14 days, 0 = no injury, 100 = complete kill, read-out: Post-emergent Weed Control ORYSA; for plant injury at 140 g/ha: 140 g ai/ha; for plant injury at 280 g/ha: 280 g ai/ha. Here is the method: (§1) Seeds or nutlets of the desired test plant species were planted in Sun Gro MetroMix® 306 planting mixture, which typically has a pH of 6.0 to 6.8 and an organic matter content of about 30 percent, in plastic pots with a surface area of 103 square centimeters. When required to ensure good germination and healthy plants, a fungicide treatment and/or other chemical or physical treatment was applied. The plants were grown for 7-21 days in a greenhouse with an approximate 15 hour photoperiod which was maintained at about 23-29° C. during the day and 22-28° C. during the night. Nutrients and water were added on a regular basis and supplemental lighting was provided with overhead metal halide 1000-Watt lamps as necessary. The plants were employed for testing when they reached the first or second true leaf stage.
(§2) A weighed amount, determined by the highest rate to be tested, of each test compound was placed in a 25 mL glass vial and was dissolved in 4 mL of a 97:3 v/v (volume/volume) mixture of acetone and dimethyl sulfoxide (DMSO) to obtain concentrated stock solutions. […] The concentrated stock solutions obtained were diluted with 20 mL of an aqueous mixture containing acetone, water, isopropyl alcohol, DMSO, Atplus 411F crop oil concentrate, and Triton® X-155 surfactant in a 48.5:39:10:1.5:1.0:0.02 v/v ratio to obtain spray solutions containing the highest application rates. Additional application rates were obtained by serial dilution of 12 mL of the high rate solution into a solution containing 2 mL of 97:3 v/v (volume/volume) mixture of acetone and dimethyl sulfoxide (DMSO) and 10 mL of an aqueous mixture containing acetone, water, isopropyl alcohol, DMSO, Atplus 411F crop oil concentrate, and Triton X-155 surfactant in a 48.5:39:10:1.5:1.0:0.02 v/v ratio to obtain 1/2X, 1/4X, 1/8X and 1/16X rates of the high rate. Compound requirements are based upon a 12 mL application volume at a rate of 187 L/ha. Formulated compounds were applied to the plant material with an overhead Mandel track sprayer equipped with a 8002E nozzles calibrated to deliver 187 L/ha over an application area of 0.503 square meters at a spray height of 18 inches (43 cm) above the average plant canopy height. Control plants were sprayed in the same manner with the solvent blank.
(§3) The treated plants and control plants were placed in a greenhouse as described above and watered by sub-irrigation to prevent wash-off of the test compounds. After 14 days, the condition of the test plants as compared with that of the untreated plants was determined visually and scored on a scale of 0 to 100 percent where 0 corresponds to no injury and 100 corresponds to complete kill.

Assay [2] relates to lambsquarter (Chenopodium album). In words: General postemergence herbicidal activity, CHEAL. The following applies: Chenopodium album, post-emergence, 336 h, postemergence spray, visual score after 14 days, 0 = no injury, 100 = complete kill, read-out: Post-emergent Weed Control CHEAL; for pest or weed control at 140 g/ha: 140 g ai/ha; for pest or weed control at 280 g/ha: 280 g ai/ha. Here is the method:
as §1, §2, §3

The subject of assay [3] is barnyardgrass (Echinochloa crus-galli). In words: General postemergence herbicidal activity, ECHCG. Conditions: Echinochloa crus-galli, post-emergence, 336 h, postemergence spray, visual score after 14 days, 0 = no injury, 100 = complete kill, read-out: Post-emergent Weed Control ECHCG; for pest or weed control at 140 g/ha: 140 g ai/ha; for pest or weed control at 280 g/ha: 280 g ai/ha. The procedure: as §1, §2, §3

The test system of assay [4] is velvetleaf (Abutilon theophrasti). In words: General postemergence herbicidal activity, ABUTH. The following applies: Abutilon theophrasti, post-emergence, 336 h, postemergence spray, visual score after 14 days, 0 = no injury, 100 = complete kill, read-out: Post-emergent Weed Control ABUTH; for pest or weed control at 140 g/ha: 140 g ai/ha; for pest or weed control at 280 g/ha: 280 g ai/ha. Here is the method: as §1, §2, §3

For assay [5], the system named is wild poinsettia (Euphorbia heterophylla). In words: General postemergence herbicidal activity, EPHHL. The following applies: Euphorbia heterophylla, post-emergence, 336 h, postemergence spray, visual score after 14 days, 0 = no injury, 100 = complete kill, read-out: Post-emergent Weed Control EPHHL; for pest or weed control at 140 g/ha: 140 g ai/ha; for pest or weed control at 280 g/ha: 280 g ai/ha. Here is the method:
as §1, §2, §3

Take `C=C(F)c1c(N)nc(-c2ccc(Cl)c(OC)c2F)nc1C(=O)OC` [Compound 9, 6-Amino-2-(4-chloro-2-fluoro-3-methoxyphenyl)-5-(1-fluorovinyl) pyrimidine-4-carboxylic acid methyl ester]: the plant injury at 140 g/ha in assay [1] was 0%. For the same compound, the pest or weed control at 140 g/ha in assay [2] stood at 95%; in assay [3], 90%; in assay [4] it was 90%; in assay [5], 100%.

For `C=C(OCC)c1c(N)nc(-c2ccc(Cl)c(OC)c2F)nc1C(=O)OC` [Compound 10, 6-Amino-2-(4-chloro-2-fluoro-3-methoxyphenyl)-5-(1-ethoxyvinyl)pyrimidine-4-carboxylic acid methyl ester], the plant injury at 280 g/ha in assay [1] is 0%. Further, the pest or weed control at 280 g/ha in assay [2] came to 40%; in assay [3] it was 0%; in assay [4] it was 50%; in assay [5], 75%.

Take `C=Cc1c(N)nc(-c2cc(F)c(Cl)cc2F)nc1C(=O)OC` [Compound 12, 6-Amino-2-(4-chloro-2,5-difluorophenyl)-5-vinylpyrimidine-4-carboxylic acid methyl ester]: the plant injury at 140 g/ha in assay [1] was determined as 0%. In addition, the pest or weed control at 140 g/ha in assay [2] was 100%; in assay [3], 50%; in assay [4] it was 100%; in assay [5], 50%.

Regarding `C=Cc1c(N)nc(-c2cc(C)c(Cl)cc2F)nc1C(=O)OC` [Compound 13, 6-Amino-2-(4-chloro-2-fluoro-5-methylphenyl)-5-vinylpyrimidine-4-carboxylic acid methyl ester], the plant injury at 280 g/ha in assay [1] is 0%. Further, the pest or weed control at 280 g/ha in assay [2] is 100%; in assay [3] it was 0%; in assay [4], 90%; in assay [5], 60%.

With `C=Cc1c(N)nc(-c2ccc(Cl)c(C(F)F)c2F)nc1C(=O)OC` [Compound 15, 6-Amino-2-(4-chloro-3-difluoromethyl-2-fluorophenyl)-5-vinylpyrimidine-4-carboxylic acid methyl ester], the plant injury at 140 g/ha in assay [1] is 5%. Besides, the pest or weed control at 140 g/ha in assay [2], in assay [3], in assay [4] and in assay [5] was 100% throughout.

As for `C=Cc1c(N)nc(-c2ccc(Cl)c(F)c2)nc1C(=O)OC` [Compound 16, 6-Amino-2-(4-chloro-3-fluorophenyl)-5-vinylpyrimidine-4-carboxylic acid methyl ester], in assay [1], the plant injury at 140 g/ha came to 0%. Moreover, the pest or weed control at 140 g/ha in assay [2] was 95%; in assay [3], 0%; in assay [4], 100%; in assay [5], 80%.

Turning to `C=Cc1c(N)nc(-c2ccc(Cl)c(OC(F)F)c2F)nc1C(=O)OC` [Compound 17, 6-Amino-2-(4-chloro-3-difluoromethoxy-2-fluorophenyl)-5-vinylpyrimidine-4-carboxylic acid methyl ester], in assay [1], the plant injury at 280 g/ha was 0%. Moreover, the pest or weed control at 280 g/ha in assay [2], in assay [3], in assay [4] and in assay [5] was 100% each time.

On to `C=Cc1c(N)nc(-c2ccc(Cl)c(OC)c2Cl)nc1C(=O)OC` [Compound 18, 6-Amino-2-(2,4-dichloro-3-methoxyphenyl)-5-vinylpyrimidine-4-carboxylic acid methyl ester], for which the plant injury at 140 g/ha in assay [1] stood at 0%. Moreover, the pest or weed control at 140 g/ha in assay [2] worked out at 100%; in assay [3], 90%; in assay [4], 100%; in assay [5], 40%.

On to `C=Cc1c(N)nc(-c2ccc(Cl)c(N(C)C)c2F)nc1C(=O)OC` [Compound 19, 6-Amino-2-(4-chloro-3-dimethylamino-2-fluorophenyl)-5-vinylpyrimidine-4-carboxylic acid methyl ester], for which the plant injury at 280 g/ha in assay [1] was found to be 85%. For the same compound, the pest or weed control at 280 g/ha in assay [2] stood at 100%; in assay [3] it was 85%; in assay [4], 100%; in assay [5], 100%.

`C=Cc1c(N)nc(-c2ccc(Cl)c(C(C)F)c2)nc1C(=O)OC` (centres unmarked) [Compound 20, 6-Amino-2-[4-chloro-3-(1-fluoroethyl)phenyl]-5-vinylpyrimidine-4-carboxylic acid methyl ester]: in assay [1], the plant injury at 280 g/ha was 0%. In addition, the pest or weed control at 280 g/ha was 100% in assay [2], 70% in assay [3], 85% in assay [4] and 100% in assay [5].

Take `C=Cc1c(N)nc(-c2ccc(Cl)c(F)c2)nc1C(=O)O` [Compound 49, 6-Amino-2-(4-chloro-3-fluorophenyl)-5-vinylpyrimidine-4-carboxylic acid]: the plant injury at 140 g/ha in assay [1] came out at 0%. The pest or weed control at 140 g/ha in assay [2] amounted to 100%; in assay [4] it was 65%; in assay [5], 100%.

Regarding `C=Cc1c(C(=O)O)nc(-c2ccc(Cl)cc2)c(F)c1N` [Compound 61, 4-Amino-6-(4-chlorophenyl)-5-fluoro-3-vinylpyridine-2-carboxylic acid], the plant injury at 140 g/ha in assay [1] was found to be 50%. Further, the pest or weed control at 140 g/ha in assay [2] is 100%; in assay [4], 100%; in assay [5], 95%.

With `C=Cc1c(N)nc(-c2ccc(Cl)c(OC)c2F)nc1C(=O)OCCCC` [Compound 62, 6-Amino-2-(4-chloro-2-fluoro-3-methoxyphenyl)-5-vinyl-pyrimidine-4-carboxylic acid butyl ester], in assay [1], the plant injury at 140 g/ha came out at 25%. Besides, the pest or weed control at 140 g/ha in assay [2], in assay [4] and in assay [5] was 100% in each case.
